Laboratory results as given in US6894073B2, “Use of diterpene compound as a therapeutic agent of inflammation, immune disease or cancer” (Korea Research Institute of Bioscience and Biotechnology, priority 2000, dated 2005).

How the values were obtained:
Assay type in all cases: cell-based, murine
[1] = test system: nitric oxide (NO); assay: Inhibition of NO production (nitrite, Griess reagent) in LPS-stimulated Raw 264.7 macrophage cells; settings: for NO: 1 μg/ml LPS, 24 hours
Method: To investigate whether kaurane diterpene compounds obtained in Example 1 can inhibit the production of nitric oxide (NO) which induces apoptosis of the immune and neuron cells, the present inventors measured the amount of nitrite (NO2) accumulated in the culture medium of LPS-stimulated murine macrophage cells, which were treated with four kaurane diterpene compounds, kamebanin, kamebacetal A, kamebakaurin, or exisanin A.
In detail, Raw 264.7 murine macrophage cells (ATCC TIB-71) in DMEM medium were seeded to 96-well plate at a cell density of 1×10^5 cells/well and incubated for 3 hours at 37° C., 5% CO2 incubator. To induce NO synthesis in the macrophage cell, 1 μg/ml of LPS and 3 μg/ml, 0.3 μg/ml, and 0.03 μg/ml of kaurane diterpene compounds of the present invention were added to the medium and the plate was incubated for 24 hours. The amount of NO2, the final oxidation product of NO induced by the LPS in the medium was measured as followed. After collecting and centrifuging incubated medium, 100 μl of Griess reagent was added into 100 μl of each culture medium. Then, the medium was incubated for ten minutes at room temperature and absorbance at 550 nm wavelength was measured. Griess reagent was prepared by mixing a solution, wherein 1% sulfanilamide was dissolved in 5% phosphoric acid, and a solution of 0.1% naphyhylethylenediamine-HCl by a 1:1 ratio. To measure the amount of standard NO synthesis, NaNO2 was serially diluted and the absorbance was measured after reacting it with Griess reagent. From this, the standard curve for the amount of NO production was obtained. The amount of NO production in the culture medium treated with each compound was estimated using standard curve for NO determination.

[2] = test system: TNF-α; assay: Inhibition of TNF-α production in LPS-stimulated Raw 264.7 cells (enzyme immunometric assay); settings: for TNF-α: 1 μg/ml LPS, 16 hours
Method: To investigate whether kaurane diterpene compounds obtained in Example 1 can inhibit effectively the production of tumor necrosis factor-α (TNF-α), one of the inflammatory mediator, which confers cytotoxic effect and induces the production of prostaglandin and cytokines, the present inventors measured the amount of TNF-α accumulated in the culture medium of LPS-stimulated murine macrophage cells, which were treated with four kaurane diterpene compounds, kamebanin, kamebacetal A, kamebakaurin, or exisanin A.
In detail, Raw 264.7 cells in DMEM medium were seeded to a 96-well plate at a cell density of 1×10^5 cells/well and were incubated for 3 hours at 37° C. in a 5% CO2 incubator. To each well were added 1 μg/ml of LPS and 3 μg/ml, 0.3 μg/ml, and 0.03 μg/ml concentrations of kaurane diterpene compounds of the present invention and was incubated for 16 hours. After collecting supernatant by centrifugation, the amount of TNF-α in the culture medium was quantified by enzyme immunometric assay.

[3] = test system: NF-κB; assay: NF-κB activation, SEAP reporter in LPS-stimulated RAW-NF-AP cells; settings: Mus musculus
Method: RAW-NF-AP cells, which can be used effectively to detect the NF-κB dependent expression of reporter gene, (Korean Patent Application No. 1999-0006025), were seeded to a 96-well plate at a cell density of 1×10^5 cell/well and were incubated for 3 hours at 37° C. in a 5% CO2 incubator. Thereafter, 1 μg/ml concentration of LPS and 0.03 μg/ml, 0.3 μg/ml, and 3 μg/ml concentrations of kaurane diterpene compounds of the present invention were added to each well and was incubated for 16 hours. After collecting supernatant by centrifugation, the amount of secreted alkaline phosphatase (SEAP) in the culture medium of which expression is regulated by the activation of NF-κB was quantified.

[4] = test system: COX-2 protein; assay: COX-2 protein expression, Western blot, LPS-stimulated Raw 264.7 cells; settings: 0.1-3 μg/ml, LPS 1 μg/ml, 18 hours
Method: Raw 264.7 murine macrophage cells were treated simultaneously with 1 μg/ml concentrations of LPS and 0.1 μg/ml, 0.3 μg/ml, 1 μg/ml, and 3 μg/ml concentrations of kamebakaurin and were incubated for 18 hours at 37° C. in a 5% CO2 incubator. After preparing total cell lysates from cultured cells using buffer solution for protein extraction of the Example <7-2>, the expression pattern of proteins was assessed by Western blot analysis.

[5] = Mus musculus, RAW264.7, LPS-stimulated Raw 264.7 cells

With `C=C1C(=O)[C@@]23[C@H](O)C[C@@H]4C(C)(C)CC[C@H](O)[C@@]4(CO)[C@@H]2CC[C@@H]1[C@H]3O` [Kamebakaurin, kamebakaurin] the “NO” value ([1]; 0.03 μg/ml compound) was 29.1 ± 4.2 µM, the “NO” value ([1]; 0.3 μg/ml compound) was 16.1 ± 2.8 µM and the “NO” value ([1]; 3 μg/ml compound) was 3.6 ± 0.7 µM. For the same compound, the inhibition at 0.03 µg/mL ([1]; Mus musculus, RAW264.7, 0.03 μg/ml compound, read-out: Inhibition rate (%) of NO production) was 44.2%, the inhibition at 0.3 µg/mL ([1]; Mus musculus, RAW264.7, 0.3 μg/ml compound, read-out: Inhibition rate (%) of NO production) was 72.4% and the inhibition at 3 µg/mL ([1]; Mus musculus, RAW264.7, 3 μg/ml compound, read-out: Inhibition rate (%) of NO production) was 99.3%. For the same compound, the IC50 [1, 5] was 0.15 µM, the “TNF-α” value ([2]; 0.03 μg/ml compound) was 1407.0 ± 255.6 pg/mL and the “TNF-α” value ([2]; 0.3 μg/ml compound) was 654.4 ± 29.4 pg/mL. The “TNF-α” value ([2]; 3 μg/ml compound) was 29.6 ± 5.3 pg/mL, the inhibition at 0.03 µg/mL ([2]; Mus musculus, RAW264.7, 0.03 μg/ml compound, read-out: Inhibition rate (%) of TNF-α production) was 15.9% and the inhibition at 0.3 µg/mL ([2]; Mus musculus, RAW264.7, 0.3 μg/ml compound, read-out: Inhibition rate (%) of TNF-α production) was 61.3%. It also gave an inhibition at 3 µg/mL ([2]; Mus musculus, RAW264.7, 3 μg/ml compound, read-out: Inhibition rate (%) of TNF-α production) of 99.2%, an IC50 [2, 5] of 0.53 µM and an inhibition at 0.03 µg/mL ([3]; 0.03 μg/ml compound, 1 μg/ml LPS, 16 hours) of 2.5%. The inhibition at 0.3 µg/mL ([3]; 0.3 μg/ml compound, 1 μg/ml LPS, 16 hours) was 33.1%, the inhibition at 3 µg/mL ([3]; 3 μg/ml compound, 1 μg/ml LPS, 16 hours) was 96.4% and the IC50 ([3]; RAW-NF-AP cells, LPS) was 1.11 µM. The “Expression of COX-2 protein” value [4] was “suppressed dose-dependently”.
